Tests used:
[1] = molecular target: T1, bovine carbonic anhydrase (BCA) (Bos taurus, UniProt P00921); conditions: resin-bound control ligand; cited from earlier work
[2] = molecular target: T1, bovine carbonic anhydrase (BCA); assay: MagLev measurement of BCA binding to ligand-functionalized PEGA beads; conditions: incubation with 0.33 mM BCA for 7 days; standard levitation buffer

T1 sequence (P00921 whole entry): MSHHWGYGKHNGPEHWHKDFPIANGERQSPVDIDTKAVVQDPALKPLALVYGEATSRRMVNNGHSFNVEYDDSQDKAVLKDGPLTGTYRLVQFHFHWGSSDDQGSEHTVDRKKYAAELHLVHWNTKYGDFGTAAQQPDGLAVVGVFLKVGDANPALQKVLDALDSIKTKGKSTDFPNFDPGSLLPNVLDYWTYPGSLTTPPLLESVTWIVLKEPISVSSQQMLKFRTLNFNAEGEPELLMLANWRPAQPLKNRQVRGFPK

**Q.** With `CN(C)S(=O)(=O)c1ccc(C(=O)O)cc1` [sulfonamide 2, 4-dimethylsulfamoylbenzoic acid] as the molecule, how does the “association with BCA” value [1] read?
**A.** should not associate measurably

**Q.** And the “decrease in the levitation height of functionalized beads” value [2]?
**A.** < 0.1 mm
